Key:
[1] = test system: chimeric α7-GluClβR; assay: IVM added after activation by ACh: kinetics and extent of current decline (whole-cell patch clamp); format: cell-based, chick nAChR α7 / C. elegans GluClβ
Experimental: Following a further wash (for a minute), the same cell was challenged again with a 5-μM-IVM solution (in 0.01% DMSO; red bar, arrow and trace). Recordings were performed at −60 mV. (B) Time constant of current decline (τd). Values of τd were determined by exponential fits to the declining phase of the currents using Eq. 3. […] Error bars correspond to SEM of N = 6 and N = 5 cells for recordings at −60 mV and −20 mV, respectively. Paired, two-tailed Student’s t-tests indicate that for not significant (“ns”) P > 0.3, and ** 0.001 < P < 0.005.
Figure 8 The inhibition of ACh-elicited currents by addition of IVM is irreversible. […] (B) Representative currents for the same experiment as in A, but with the exception of IVM (0.5 μM) addition after the ACh-elicited current reached to its peak (IP1). Inset, magnification of the indicated segment of the current trace. In both panels A and B, black bars above the current traces indicate ACh or IVM applications. […] Error bars correspond to SEM. Unpaired, two-tailed Student’s t-tests indicate *** P < 0.0001.
The declining phase of the currents was fitted with an exponential time course to give the time constant of current decline by using equation 3, […]
I is the current, IP is the peak of the current, IS is the steady state current, t is the time, and τ is the time constant of current decline. […]
Supplementary Materials and Methods
The structural mo del of the chi meric α7-GluClβR was built based on th e methodologies published previously1,2, and the sequence of the chimeric subunit is presented in […]
DNA construct and preparation of cells for electrophysiological experiments The cDNA encoding the α7-GluClβ chimeric subunit was generated as described previously3, and was cloned into a pcDNA3.1 vector.
Chinese hamster ovary cells (CHO-K1, ATCC via Biological Industries Israel, Beit Haemek Ltd.) were cultured as performed previously2 in Dulbecco 's Modified E agle Med iu m (DMEM) containing 10% fetal calf serum (Biological Industries Israel Beit Haemek Ltd.), 2 mM glutamax, 100 Units/ml penicillin G and 100 μg/ml streptomycin, and grown in 5% CO2 at 37°C under 90-95% hu midity . CHO cells were seeded on glass coverslips (13-mm diameter) placed in a 24-multiwell plate. For the expression of the α7-GluClβR, cells were transiently transfected with the pcDNA3.1 plasmid containing the receptor’s ORF (200-600 ng per well) using transit-LT1 transfection reagent (Mirus, USA), according to the manufacturer’s protocol. pIRES-CD8 plas mid (200 ng per well) was also added to enable visualization of the ex pressing cells by beads coated with anti-CD8 antibodies (Invitrogen). For the expression of GluClβ ho mo mers, we used the pcDNA3.1 plas mid containing the GluClβ-subunit ORF (600-1000 ng per well), pIRES-CD8 plas mid (200 ng per well) and th e X-tremeGENE HP DNA Transfection Reagent (Roche Life Science). Recordings were performed 48-72 hours following transfection.
Whole-cell patch clamp recordings
Recordings were performed in the aforementioned CHO cells, as previously described1,2. Whole-cell patch clamp experiments were performed with normal external solution (NES) contained (in millimolar): 140 NaCl, 2.8 KCl, 2 CaCl2, 2 MgCl2, 10 glucose and 10 HEPES, adjusted to pH 7.35 with NaOH (310 mOsM). The pipette solution contained […]
(in millimolar): 130 KCl, 4 MgCl2, 4 Na2ATP, 1 EGTA and 10 HEPES, adjusted to pH 7.35 with KOH (290 mOsM). The osmolarity of these solutions was maintained by adding sucrose.
The electrode resistance was 6-10 MΩ when filled with the pipette solution. External solutions were applied onto the cell by using the VC-77SP fast-step system (Warner Instruments, CT, USA) combined with N2 pressure of 3-4 psi to produce laminar flow of the external solution onto the patched cell. All measurements were performed at 25 °C. The currents w ere measured with an Axopatch 200B patch-clamp amplifier (Molecular Devices, Sunnyvale, CA) and a Digidata 1440A interface (Molecular Devices). […]

[2] = test system: T1, homomeric GluClβR; assay: Effect of IVM on Glu-elicited currents of homomeric GluClβ receptors in CHO cells (whole-cell patch clamp); format: cell-based, C. elegans; details: pre-application of 2 μM IVM for 10 seconds, 100 mM Glu, +60 mV, four cells
T1 construct: homomeric receptors assembled from the full-length C. elegans GluClβ subunit; expressed in transfected cells; host or cells: CHO-K1 cells, transient transfection, pcDNA3.1
Experimental: Figure 9 Effect of IVM on homomeric GluClβ receptors. (A) Representative current traces obtained by the indicated application protocol. Glu (100 mM) was applied for either 350 ms to obtain peak IP0 at −60 mV, or 600 ms to obtain peaks IP1, IP2 and IP3 at +60 mV. Note that the responses at both membrane voltages, −60 and +60 mV, start to desensitize appreciably before the end of Glu application. IVM (2 μM) was applied for 10 seconds. Asterisk indicates a 25-sec-long wash between the second and third Glu applications. (B) Current-voltage (I/V) relations obtained in a different cell than in A upon the application of Glu (100 mM) over a voltage ramp lasting 200 ms. […] Current ratios were extracted from experiments performed as shown in (A). Mean ± SEM of four cells are presented. Paired, two-tailed Student’s t-tests indicate that **0.001 < P < 0.01 and ***P < 0.0002.
Supplementary Information
Trapping of ivermectin by a pentameric ligand-gated ion channel upon open-to-cl ose d i someri zati on N. Degani-Katzav, M. Klein, M. Har-Even, R. Gortler, R. Tobi and Y. Paas*
Supplementary Materials and Methods […]
The electrode resistance was 6-10 MΩ when filled with the pipette solution. […] The currents w ere measured with an Axopatch 200B patch-clamp amplifier (Molecular Devices, Sunnyvale, CA) and a Digidata 1440A interface (Molecular Devices). […]

[3] = 30 μM ACh + 0.5 μM IVM, 9.6 sec, N = 10

CC[C@H](C)[C@H]1O[C@]2(CC[C@@H]1C)C[C@@H]1C[C@@H](C/C=C(\C)[C@@H](O[C@H]3C[C@H](OC)[C@@H](O[C@H]4C[C@H](OC)[C@@H](O)[C@H](C)O4)[C@H](C)O3)[C@@H](C)/C=C/C=C3\CO[C@@H]4[C@H](O)C(C)=C[C@@H](C(=O)O1)[C@]34O)O2 [IVM, Ivermectin]
reduction of time constant of current decline (τd) ([1]; 5 μM IVM added after peak of 350 μM ACh response, −60 mV and −20 mV): more than two folds | τd1 amplitude percentage (%A) ([1]; 30 μM ACh + 0.5 μM IVM): 55 ± 10% | τd2 amplitude percentage (%A) ([1]; 30 μM ACh + 0.5 μM IVM): 45 ± 10% | τd1, time constant of current decline [1, 3]: 3370 ± 318 ms | τd2, time constant of current decline [1, 3]: 987 ± 120 ms | time between the start of application and the onset of effect ([1]; six experiments as in Fig. 5A, 350 μM ACh, 5 μM IVM): 132 ± 24 milliseconds | Glu response remaining after IVM pre-application (IP2/IP1 ratio) [2]: ~67%
